Source: patent publication US20040180035A1, “IL-15 immunoconjugates and uses thereof” (EMD Lexigen Research Center Corp., priority 1998, published 2004)

System: LLC-Ep tumors
Test: LLC-Ep subcutaneous tumor growth in C57BL/6 mice (Example 6)
Type: in vivo
Details: after treatment for 22 days; fusion protein 25 μg/mouse i.v., 5 daily injections; indomethacin 20 μg/mL in drinking water
Method: Female C57B1/6 mice were injected subcutaneously in the mid-back with LLC-Ep cells (2×10^6 cells per injection). When the tumors reached 600-1200 mm^3, the mice were sacrificed. The skin overlying the tumor was cleaned with betadine and ethanol, the tumors excised and necrotic tissue discarded. A suspension of tumor cells in phosphate buffered saline was prepared by passing viable tumor tissue through a sieve and then through a series of sequentially smaller […] needles of 22- to 30-gauge. The cells were adjusted to a concentration of 1×10^7 cells/mL and placed on ice. C57BL/6 mice then were injected with 0.1 mL of the freshly resuspended cells (1×10^6 cells/mouse) in the proximal midline of the subcutaneous dorsa.
When the tumors reached 100-200 mm^3 in size (about 7 to 14 days), the mice were randomized into four groups, 5 mice per group. Group 1 received intravenous injections of 0.2 mL of PBS daily. Group 2 received 5 daily intravenous injections of huKS-huγ1-huIL2 (25 μg/mouse) in PBS. Group 3 received indomethacin orally in drinking water (20 μg/mL, or about 60-70 μg of indomethacin consumed daily per mouse) throughout the treatment period. Group 4 received 5 daily intravenous injections of huKS-huγ1-huIL2(25 μg/mouse), and indomethacin orally in drinking water (20 μg/mL) throughout the treatment period. Tumor volumes were measured as described in Example 3. […]

`COc1ccc2c(c1)c(CC(=O)O)c(C)n2C(=O)c1ccc(Cl)cc1` [indomethacin] showed a T/C ratio of 0.60.
